Experiment [1] has as its system Phosphorylation of ERK1/2 in AsPC-1 cells. Kind of experiment: Phospho-ERK1/2 MSD Assay. The class given is cell-based. As to conditions: Homo sapiens, ASPC1, 2 h, read-out: 2 h p-ERK (AsPC-1 cells), IC50 (μM), AsPC-1 cells, 2 h compound treatment. The method, then:
AsPC-1 (ATCC® CRL-1682TM) cells were cultured in RPMI 1640 Medium (ThermoFisher Scientific 11875093) containing 10% fetal bovine serum (ThermoFisher Scientific 16000044) and 1× penicillin-streptomycin-glutamine (ThermoFisher Scientific 10378016). Sixteen hours prior to compound treatment, AsPC-1 cells were seeded in 96-well cell culture plates at a density of 25,000 cells/well and incubated at 37° C., 5% CO2. A compound dose-response titration was diluted in growth media, added to appropriate wells of a cell culture plate, and then incubated at 37° C., 5% CO2 for 2 hours. Following compound treatment, cells were washed with ice-cold Dulbecco's phosphate-buffered saline, no Ca^2+ or Mg^2+ (ThermoFisher Scientific 14190144), and then lysed in RIPA buffer (50 mM Tris-HCl pH 7.5, 1% Igepal, 0.5% sodium deoxycholate, 150 mM NaCl, and 0.5% sodium dodecyl sulfate) containing protease inhibitors (Roche 4693132001) and phosphatase inhibitors (Roche 4906837001). Phosphorylation of ERK1/2 in compound-treated lysates was assayed using Phospho-ERK1/2 Whole Cell Lysate kits (Meso Scale Discovery K151DWD) according to the manufacturer's protocol. Assay plates were read on a Meso Scale Discovery Sector Imager 6000, and data were analyzed using a 4-parameter logistic model to calculate IC50 values.

For experiment [2], the target named is His-tagged KRAS G12D protein (Homo sapiens (Human), UniProt P01116, G12D). As to the kind of experiment: KRAS G12D TR-FRET Assay. In kind it is binding. The settings on record: biotinylated KRPep-2d, 10 μM GDP. As for the experimental part:
Compounds of interest were prepared in a dose-response titration in DMSO, and 80 nL were added via Labcyte Echo to each well of a 384-well plate (Perkin Elmer 6008280). The His-tagged KRAS G12D protein (Amgen) was diluted to 20 nM in Assay Buffer (20 mM HEPES, pH 7.4, 10 mM MgCl2, 50 mM NaCl, 0.1% BSA, 0.01% Tween-20, 10 μM GDP) and 2 μL was added to the appropriate wells of the 384-well plate. The plate was incubated for 30 minutes at rt. Biotinylated KRPep-2d substrate (Amgen) was diluted to […] in Assay Buffer and 2 AL was added to all wells and incubated for 1 hour at room temperature. Detection Reagent (0.4 nM LANCE Eu-W1024 Anti-6×His (Perkin Elmer AD0401), 5 nM streptavidin-d2 (Cisbio 610SADLA)) was prepared in Assay Buffer, then 4 AL was added to the plate and incubated for 1 h at rt. Plates were read using PerkinElmer En Vision (ex: 320 nm, em1: 665 nm, em2: 615 nm) and em1/em2 data was used to generate curve fits using a 4-parameter logistic model to calculate IC50 values.

In experiment [3] the target is GDP-bound KRAS protein (aa 1-169), G12D and C118A; SOS-mediated nucleotide exchange (Homo sapiens (Human), UniProt P01116, C118A/G12D). As to the kind of experiment: KRAS G12D Coupled Nucleotide Exchange Assay. As to conditions: 2 h compound pre-incubation, GTP, cRAF AlphaScreen. The class given is biochemical. As for the experimental part:
Purified GDP-bound KRAS protein (aa 1-169), containing both G12D and C118A amino acid substitutions and an N-terminal His-tag, was pre-incubated in assay buffer (25 mM HEPES pH 7.4, 10 mM MgCl2, and 0.01% Triton X-100) with a compound dose-response titration for 2 h. Following compound pre-incubation, purified SOS protein (aa 564-1049) and GTP (Roche 10106399001) were added to the assay wells and incubated for an additional 30 min. […] The assay plates were then read on a PerkinElmer En Vision Multilabel Reader, using AlphaScreen® technology, and data were analyzed using a 4-parameter logistic model to calculate IC50 values.
For orientation: Alpha assays give light when donor and acceptor beads are brought close together.

Sequence of His-tagged KRAS G12D protein (P01116-2 other isoform, or with tags, fused parts or gaps G12D): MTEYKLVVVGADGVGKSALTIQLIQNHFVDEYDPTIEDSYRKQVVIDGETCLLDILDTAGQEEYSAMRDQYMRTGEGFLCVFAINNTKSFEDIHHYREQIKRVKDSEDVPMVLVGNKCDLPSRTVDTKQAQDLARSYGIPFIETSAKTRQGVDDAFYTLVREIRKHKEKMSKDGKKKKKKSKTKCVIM
Sequence of GDP-bound KRAS protein (aa 1-169), G12D and C118A; SOS-mediated nucleotide exchange (P01116 other isoform, or with tags, fused parts or gaps G12D/C118A): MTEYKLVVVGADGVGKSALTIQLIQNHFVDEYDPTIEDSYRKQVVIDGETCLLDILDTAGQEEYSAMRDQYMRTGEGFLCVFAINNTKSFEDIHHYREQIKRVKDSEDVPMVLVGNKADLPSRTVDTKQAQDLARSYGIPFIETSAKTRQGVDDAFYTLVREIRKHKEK

With `N#Cc1c(N)sc2c(F)ccc(-c3c(Cl)cc4c(N5CC6CC(O)C(C6)C5)nc(OC[C@@]56CCCN5C[C@H](F)C6)nc4c3F)c12` (mixture of isomers) [Example 7, 2-Amino-4-(6-chloro-8-fluoro-2-(((2R,7aS)-2-fluorotetrahydro-1H-pyrrolizin-7a(5H)-yl)methoxy)-4-(rac-(1R,5R,6R)-6-hydroxy-3-azabicyclo[3.2.1]octan-3-yl)quinazolin-7-yl)-7-fluorobenzo[6] thiophene-3-carbonitrile], the IC50 in experiment [1] was found to be 0.264 µM. For `N#Cc1c(N)sc2c(F)ccc(-c3c(Cl)cc4c(N5CCCOCCC5)nc(OC[C@@]56CCCN5C[C@H](F)C6)nc4c3F)c12` (single isomer, unassigned) [Example 19], the IC50 in experiment [2] was 164 nM; in experiment [3] it was 94 nM.

On to `CC1(O)COCCN(c2nc(OC[C@@]34CCCN3C[C@H](F)C4)nc3c(F)c(-c4ccc(F)c5sc(N)c(C#N)c45)c(Cl)cc23)C1` (single isomer, unassigned) [Example 23], for which the concentration for half-maximal inhibition (IC50) in experiment [2] was 44 nM; in experiment [3], 42 nM. For the molecule `CC(C)(O)COc1nc(N2CCOC[C@@](C)(O)C2)c2cc(Cl)c(-c3ccc(F)c4sc(N)c(C#N)c34)c(F)c2n1` (single isomer, unassigned) [Example 67], the IC50 in experiment [2] stood at 61 nM; in experiment [3], 34 nM. `N#Cc1c(N)sc2c(F)ccc(-c3c(Cl)cc4c(N5CCCCCC5)nc(OC[C@@]56CCCN5C[C@H](F)C6)nc4c3F)c12` [Example 1, 2-Amino-4-(4-(azepan-1-yl)-6-chloro-8-fluoro-2-(((2R,7aS)-2-fluorotetrahydro-1H-pyrrolizin-7a(5H)-yl)methoxy)quinazolin-7-yl)-7-fluorobenzo[b]thiophene-3-carbonitrile]: the IC50 in experiment [1] was 0.052 µM.

For `N#Cc1c(N)sc2c(F)ccc(-c3c(Cl)cc4c(N5CCCC6(CCOC6)C5)nc(OC[C@@]56CCCN5C[C@H](F)C6)nc4c3F)c12` (stereo partly drawn) [Example 2, 2-Amino-4-(6-chloro-8-fluoro-2-(((2R,7aS)-2-fluorotetrahydro-1H-pyrolizin-7a(5H)-yl)methoxy)-4-(2-oxa-7-azaspiro[4.5]decan-7-yl)quinazolin-7-yl)-7-fluorobenzo[b] thiophene-3-carbonitrile], the IC50 in experiment [2] was 34 nM; in experiment [3], 46 nM.

As for `N#Cc1c(N)sc2c(F)ccc(-c3c(Cl)cc4c(N5CCCC(C#N)CC5)nc(OC[C@@]56CCCN5C[C@H](F)C6)nc4c3F)c12` (stereo partly drawn) [Example 3, 1-(7-(2-Amino-3-cyano-7-fluorobenzo[b]thiophen-4-yl)-6-chloro-8-fluoro-2-(((2R,7a.S)-2-fluorotetrahydro-1H-pyrrolizin-7a(5H)-yl)methoxy)quina-zolin-4-yl)azepane-4-carbonitrile], in experiment [1], the IC50 turned out to be 0.105 µM. Turning to `N#Cc1c(N)sc2c(F)ccc(-c3c(Cl)cc4c(N5CCCC[C@@H](O)C5)nc(OC[C@@]56CCCN5C[C@H](F)C6)nc4c3F)c12` [Example 4, 2-Amino-4-(6-chloro-8-fluoro-2-(((2R,7aS)-2-fluorotetrahydro-1H-pyrrolizin-7a(5H)-yl)methoxy)-4-((R)-3-hydroxyazepan-1-yl)quinazolin-7-yl)-7-fluorobenzo[b] thiophene-3-carbonitrile], in experiment [1], the IC50 worked out at 0.041 µM. The same measure, in the same setting: as for `N#Cc1c(N)sc2c(F)ccc(-c3c(Cl)cc4c(N5CCOCC(=O)C5)nc(OC[C@@]56CCCN5C[C@H](F)C6)nc4c3F)c12` [Example 6, 2-Amino-4-(6-chloro-8-fluoro-2-(((2R,7aS)-2-fluorotetrahydro-1H-pyrrolizin-7a(5H)-yl)methoxy)-4-(6-oxo-1,4-oxazepan-4-yl)quinazolin-7-yl)-7-fluorobenzo[b] thiophene-3-carbonitrile], the figure is 0.143 µM. Still for that read-out and setting: under `N#Cc1c(N)sc2c(F)ccc(-c3c(Cl)cc4c(N5CCCCC(=O)C5)nc(OC[C@@]56CCCN5C[C@H](F)C6)nc4c3F)c12` [Example 8, 2-Amino-4-(6-chloro-8-fluoro-2-(((2R,7aS)-2-fluorotetrahydro-1H-pyrrolizin-7a(5H)-yl)methoxy)-4-(3-oxoazepan-1-yl)quinazolin-7-yl)-7-fluorobenzo[b] thiophene-3-carbonitrile] stands 0.015 µM. Consider `N#Cc1c(N)sc2c(F)ccc(-c3c(Cl)cc4c(N5CCC6(CCCS6(=O)=O)C5)nc(OC[C@@]56CCCN5C[C@H](F)C6)nc4c3F)c12` (stereo partly drawn) [Example 9, 2-Amino-4-(6-chloro-4-(1,1-dioxido-1-thia-7-azaspiro[4.4]nonan-7-yl)-8-fluoro-2-(((2R,7aS)-2-fluorotetrahydro-1H-pyrrolizin-7a(5H)-yl)methoxy)quinazolin-7-yl)-7-fluorobenzo[b] thiophene-3-carbonitrile], for which the IC50 in experiment [2] is 60 nM; in experiment [3], 41 nM. For `N#Cc1c(N)sc2c(F)ccc(-c3c(Cl)cc4c(N5CCCC6(CCS6(=O)=O)C5)nc(OC[C@@]56CCCN5C[C@H](F)C6)nc4c3F)c12` (stereo partly drawn) [Example 10, 2-Amino-4-(6-chloro-4-(1,1-dioxido-1-thia-6-azaspiro[3.5]nonan-6-yl)-8-fluoro-2-(((2R,7aS)-2-fluorotetrahydro-1H-pyrrolizin-7a(5H)-yl)methoxy)quinazolin-7-yl)-7-fluorobenzo[b] thiophone-3-carbonitrile], in that order: 44 nM and 36 nM. `N#Cc1c(N)sc2c(F)ccc(-c3c(Cl)cc4c(N5CCCC6(CNC(=O)O6)C5)nc(OC[C@@]56CCCN5C[C@H](F)C6)nc4c3F)c12` (stereo partly drawn) [Example 17, 2-Amino-4-(6-chloro-8-fluoro-2-(((2R,7aS)-2-fluorotetrahydro-1H-pyrrolizin-7a(5H)-yl)methoxy)-4-(2-oxo-1-oxa-3,7-diazaspiro[4.5]decan-7-yl)quinazolin-7-yl)-7-fluorobenzo[b] thiophene-3-carbonitrile]: in experiment [1], the IC50 was found to be 0.768 µM. With `C[C@@]1(O)CCCN(c2nc(OC[C@@]34CCCN3C[C@H](F)C4)nc3c(F)c(-c4ccc(F)c5sc(N)c(C#N)c45)ncc23)C1` [Example 56, 2-Amino-7-fluoro-4-(8-fluoro-2-(((2R,7aS)-2-fluorotetrahydro-1H-pyrrolizin-7a(5H)-yl)methoxy)-4-((R)-3-hydroxy-3-methylpiperidin-1-yl)pyrido[4,3-d]pyrimidin-7-yl)benzo[b] thiophene-3-carbonitrile], the IC50 in experiment [2] came out at 17 nM; in experiment [3], 30 nM. For `N#Cc1c(N)sc2c(F)ccc(-c3c(Cl)cc4c(N5CCCC[C@@H](C#N)C5)nc(OC[C@@]56CCCN5C[C@H](F)C6)nc4c3F)c12` [Example 68, (3R)-1-(7-(2-amino-3-cyano-7-fluorobenzo[b]thiophen-4-yl)-6-chloro-8-fluoro-2-(((2R,7aS)-2-fluorotetrahydro-1H-pyrrolizin-7a(5H)-yl)methoxy)quinazolin-4-yl)azepane-3-carbonitrile], in that order: 144 nM and 91 nM. The like results for `N#Cc1c(N)sc2c(F)ccc(-c3c(Cl)cc4c(N5CCCC[C@H](C#N)C5)nc(OC[C@@]56CCCN5C[C@H](F)C6)nc4c3F)c12` [Example 69, (3S)-1-(7-(2-amino-3-cyano-7-fluorobenzo[b]thiophen-4-yl)-6-chloro-8-fluoro-2-(((2R,7aS)-2-fluorotetrahydro-1H-pyrrolizin-7a(5H)-yl)methoxy)quinazolin-4-yl)azepane-3-carbonitrile] were, in that order, 139 nM and 71 nM.

A word on the IC50: it is the midpoint of a concentration-inhibition curve.

For the origin of these results see US20250163064A1, “QUINAZOLINE COMPOUNDS AND USES THEREOF AS INHIBITORS OF MUTANT KRAS PROTEINS” (AMGEN INC., priority 2022, published 2025).
